Series [1] deals with Plasmodium falciparum. Nature of the series: microbe, parasite or virus in culture. It counts as functional, organism-based. Particulars: FcB1/Columbia.
Description: Antiplasmodial activity against chloroquine-resistant Plasmodium falciparum FcB1/Colombia infected in human A+ve erythrocytes assessed as inhibition of [G-3H]hypoxanthine uptake preincubated for 24 hrs prior to [G-3H]hypoxanthine addition measured after 18 hrs by liquid scintillation counting
The test system of series [2] is Leishmania donovani. Nature of the series: Antileishmanial activity against Leishmania donovani MHOM/ET/L82/LV9 promastigotes after 3 days by MTT assay. Format: functional, organism-based. To be noted: MHOM/ET/L82/LV9, 72 h. (In general: Formazan colour is commonly taken as a measure of viable cells.)
Series [3] relates to Trypanosoma brucei brucei. Kind of series: Antitrypanosomal activity against Trypanosoma brucei brucei. It counts as functional, organism-based.
Series [4] relates to Vero. Nature of the series: Cytotoxicity against african green monkey Vero cells. It counts as ADME, cell-based. To be noted: Chlorocebus sabaeus.
Series [5] is described as follows: Selectivity index, ratio of IC50 for african green monkey Vero cells to IC50 for chloroquine-resistant Plasmodium falciparum FcB1/Colombia. It counts as toxicity, cell-based. Particulars: read-out: Ratio IC50.

Converted amounts (≈) assume the structure as drawn.

This passage reports IC50, EC50 and selectivity ratio results from ChEMBL document CHEMBL1926619, “Structure and in vitro antiparasitic activity of constituents of Citropsis articulata root bark” (J Nat Prod, 2011).

By IC50 is commonly meant the concentration that gives 50% inhibition. The term EC50 denotes the concentration that produces a half-maximal response. Turning to `COc1cc2c(c(O)c1OC)c(=O)c1cccc(O)c1n2C`, the IC50 was 3 µg/mL (≈ 9.96 µM) in series [1] and 30.5 µg/mL (≈ 101 µM) in series [4]. The EC50 in series [2] amounted to 20.4 µg/mL (≈ 67.7 µM); in series [3] it was 125 µg/mL (≈ 415 µM). Also, in series [5], the selectivity ratio is 10.
For `CC(=O)O[C@@H]1C[C@H]2C(C)(C)OC(=O)C=C[C@]2(C)[C@H]2CC[C@@]3(C)[C@H](c4ccoc4)OC(=O)[C@H]4O[C@]43[C@@]21C`, the IC50 was 9.3 µg/mL (≈ 18.7 µM) in series [1] and greater than 50 µg/mL in series [4]. For the same compound, the EC50 was 45 µg/mL (≈ 90.3 µM) in series [2] and greater than 125 µg/mL in series [3].
As for `Cn1c2c(O)cccc2c(=O)c2c(O)cc3c(c21)C=CC(C)(C)O3`, the IC50 in series [1] turned out to be 0.9 µg/mL (≈ 2.78 µM); in series [4], 9.3 µg/mL (≈ 28.8 µM). The values for the EC50 in series [2] and in series [3] were 11.2 µg/mL (≈ 34.6 µM) and 125 µg/mL (≈ 387 µM), respectively. Besides, in series [5], the selectivity ratio turned out to be 10.
`CC[C@@]1(O)C(=O)OCc2c1cc1n(c2=O)Cc2cc3ccccc3nc2-1` [CAMPTOTHECIN] displayed an IC50 in series [4] of 0.6 µg/mL (≈ 1.72 µM).
As to `NCCS[As](SCCN)c1ccc(Nc2nc(N)nc(N)n2)cc1` [CYMELARSEN], the concentration giving a half-maximal response (EC50) in series [3] worked out at 1 µg/mL.
In the case of `CC(C)=CCc1cc2ccc(=O)oc2cc1O` [DEMETHYLSUBEROSIN], the IC50 is 16.7 µg/mL (≈ 72.5 µM) in series [1] and greater than 50 µg/mL in series [4]. Moreover, the EC50 in series [2] is 120 µg/mL (≈ 521 µM); in series [3], greater than 125 µg/mL.
The like results for `COc1cc2ccc(=O)oc2cc1O[C@@H]1O[C@H](CO[C@@H]2O[C@@H](C)[C@H](O)[C@@H](O)[C@H]2O)[C@@H](O)[C@H](O)[C@H]1O` [HAPLOPEROSIDE] were, in that order, greater than 100 µg/mL, greater than 50 µg/mL, greater than 125 µg/mL and greater than 125 µg/mL.
`C[C@@H]1O[C@@H](O[C@H]2[C@H](Oc3cc(=O)n(C)c4ccccc34)O[C@H](CO)[C@@H](O)[C@@H]2O)[C@H](O)[C@H](O)[C@H]1O` [KATIMBORINE]: the half-inhibitory concentration (IC50) in series [1] is greater than 100 µg/mL; in series [4] it was greater than 50 µg/mL. Also, the concentration for a half-maximal effect (EC50) in series [2] and in series [3] was greater than 125 µg/mL in each case.
Consider `CC1(C)C=Cc2c(ccc(CCC(=O)O)c2O[C@@H]2O[C@H](CO[C@@H]3O[C@H](CO)[C@@H](O)[C@H](O)[C@H]3O)[C@@H](O)[C@H](O)[C@H]2O)O1` [OMUBIOSIDE], for which the half-maximal inhibitory concentration (IC50) is greater than 100 µg/mL in series [1] and greater than 50 µg/mL in series [4]. Moreover, the half-maximal effective concentration (EC50) in series [2] and in series [3] was greater than 125 µg/mL throughout.
Regarding `N=C(N)c1ccc(OCCCCCOc2ccc(C(=N)N)cc2)cc1` [PENTAMIDINE], the EC50 stood at 3.1 µg/mL (≈ 9.11 µM) in series [2] and 1.4 µg/mL (≈ 4.11 µM) in series [3].
Regarding `CC1(C)C=Cc2c(ccc3ccc(=O)oc23)O1` [SESALIN], the IC50 is greater than 100 µg/mL in series [1] and greater than 50 µg/mL in series [4]. For the same compound, the EC50 in series [2] and in series [3] was greater than 125 µg/mL each time.
With `COc1cc2oc(=O)ccc2cc1CC=C(C)C` [SUBEROSIN], the results for the IC50 in series [1] and in series [4] were greater than 100 µg/mL and greater than 50 µg/mL, respectively. The EC50 in series [2] and in series [3] was greater than 125 µg/mL each time.
As to `C[n+]1cccc(C(=O)[O-])c1.Cl` [TRIGONELLINE HYDROCHLORIDE], the IC50 in series [1] was greater than 100 µg/mL; in series [4], greater than 50 µg/mL. Further, the EC50 in series [2] and in series [3] was greater than 125 µg/mL in each case.
